Source: paper PMC5075699
Several values for one entry are separate records, joined by “and”; a condition that tells them apart may be missing. Equal values may be shown once.

What was measured:
nontransgenic mice = assay: Pilot Morris water maze #1 (spatial learning and memory); details: for MWM training latency Trial*ISRIB (linear mixed effects regression model): 6-7 month-old nontransgenic mice; for %Target Quadrant (percent time spent in target quadrant) / Crossing Frequency (number of platform crossings) / Latency to Target / Crossing Frequency: individual mice; for Distance / Latency: Fig 2A; for Crossing Frequency: Fig 2C
[1] = ISRIB plasma levels in satellite mice (pharmacokinetic data); details: 2.5 hours post-administration, individual mouse
[2] = 0.25 mpk i.p. after each training trial, vs vehicle
[3] = 24-hour probe trial (Fig 2B), 0.1mpk
[4] = 24-hour probe trial (Fig 2B), 0.25mpk
[5] = 72-hour probe trial (Fig 2C), 0.1mpk
[6] = 72-hour probe trial (Fig 2C), 0.25mpk
[7] = ISRIB 0.1mpk, Trial 1, individual mice
[8] = ISRIB 0.1mpk, Trial 2, individual mice
[9] = ISRIB 0.1mpk, Trial 3, individual mice
[10] = ISRIB 0.1mpk, Trial 4, individual mice
[11] = ISRIB 0.25mpk, Trial 1, individual mice
[12] = ISRIB 0.25mpk, Trial 2, individual mice
[13] = ISRIB 0.25mpk, Trial 3, individual mice

O=C(COc1ccc(Cl)cc1)NC1CCC(NC(=O)COc2ccc(Cl)cc2)CC1 (stereo not shown) [ISRIB]
MWM training latency Trial*ISRIB (linear mixed effects regression model) (nontransgenic mice; 0.1 mpk i.p. after each training trial, vs vehicle): −1.2 sec/day
MWM training distance Trial*ISRIB (linear mixed effects regression model) (nontransgenic mice; [2]): -36 cm/day
MWM training latency Trial*ISRIB (linear mixed effects regression model) (nontransgenic mice; [2]): −0.9 sec/day
%Target Quadrant (percent time spent in target quadrant) (nontransgenic mice; [3]): 44.0932% and 16.8608% and 27.6206% and 29.7282% and 34.8863% and 38.4914% and 18.802% and 29.5064% and 21.1869% and 54.6312% and 23.8491% and 29.5618% and 18.2474% and 16.6944%
Crossing Frequency (number of platform crossings) (nontransgenic mice; [3]): 3 and 1 and 0 and 5 and 2
Latency to Target (nontransgenic mice; [3]): 15.4154 and 14.3143 and 9.776 and 14.281 and 10.9109 and 23.8572 and 8.075 and 28.4618 and 6.173 and 49.9833 and 54.0207 and 5.439
%Target Quadrant (percent time spent in target quadrant) (nontransgenic mice; [4]): 41.7083% and 28.508% and 15.9179% and 23.35% and 35.33% and 30.3383% and 37.9922% and 36.7721% and 24.4038% and 36.5502% and 36.6057% and 35.6628% and 17.3045% and 11.2035% and 27.787%
Crossing Frequency (number of platform crossings) (nontransgenic mice; [4]): 4 and 1 and 2 and 3 and 5
Latency to Target (nontransgenic mice; [4]): 12.5459 and 7.174 and 15.2486 and 19.2526 and 12.7795 and 12.9463 and 6.24 and 43.31 and 13.5135 and 13.6804 and 10.4438 and 8.842 and 6.84 and 29.0624 and 19.3861
%Target Quadrant (percent time spent in target quadrant) (nontransgenic mice; [5]): 24.3483% and 20.0222% and 43.7604% and 8.4304% and 14.8641% and 36.883% and 28.6744% and 19.3012% and 32.6678% and 33.9434% and 13.6439% and 27.6206% and 18.9684% and 18.4692% and 26.345%
Latency to Target (nontransgenic mice; [5]): 47.2473 and 25.4922 and 4.571 and 12.4458 and 24.0908 and 40.0734 and 23.29 and 28.6286 and 42.042 and 38.3383 and 5.506 and 17.9513
%Target Quadrant (percent time spent in target quadrant) (nontransgenic mice; [6]): 45.4798% and 27.066% and 23.0727% and 47.7537% and 35.4409% and 31.5031% and 40.9318% and 46.4781% and 25.5685% and 36.6057% and 27.898% and 43.3167% and 22.3516% and 17.7482% and 21.6861%
Latency to Target (nontransgenic mice; [6]): 9.843 and 17.3507 and 7.741 and 43.2432 and 4.972 and 20.1201 and 23.7237 and 4.638 and 6.24 and 11.4448 and 27.027 and 19.4194
latency to target and crossing frequency vs vehicle (nontransgenic mice; 72-hour probe trial, one-way ANOVA): no significant improvement
Distance (nontransgenic mice; [7]): 2362.83 and 2250.62 and 2496.09 and 1947.39 and 1168.96 and 2236.97 and 2411.54 and 2035.59 and 1921.1 and 2456.98 and 2337.83 and 2068.76 and 2366.51 and 2250.12 and 2342.92
Latency (nontransgenic mice; [7]): 120.12 and 115.716 and 120.153 (11×) and 70.7374 and 112.312
Distance (nontransgenic mice; [8]): 2488.72 and 412.271 and 2629.01 and 582.153 and 2113.12 and 2245.93 and 2084.31 and 208.443 and 322.031 and 2551.61 and 1958.47 and 2254.18 and 2157.45 and 1870.02 and 1903.66
Latency (nontransgenic mice; [8]): 120.153 (7×) and 20.1868 and 53.2199 and 101.501 and 119.653 and 16.016 and 18.5852 and 101.535 and 100.467
Distance (nontransgenic mice; [9]): 96.0203 and 1493.55 and 655.096 and 2193.26 and 428.034 and 2346.49 and 668.274 and 682.153 and 2384.94 and 600.87 and 1974.12 and 1289.33 and 2210.56 and 216.348 and 165.502
Latency (nontransgenic mice; [9]): 7.307 and 72.6059 and 29.1291 and 120.153 (6×) and 25.7925 and 43.31 and 33.8338 and 32.666 and 11.8785 and 10.01
Distance (nontransgenic mice; [10]): 1924.82 and 804.911 and 451.376 and 688.986 and 824.577 and 691.966 and 1226.74 and 1849.83 and 378.165 and 840.629
Latency (nontransgenic mice; [10]): 96.0961 and 35.7357 and 20.6873 and 46.6467 and 38.0714 and 35.4354 and 120.153 and 97.4308 and 17.4174 and 44.2776
Crossing Frequency (nontransgenic mice; ISRIB 0.1mpk): 1 and 2 and 5 and 0 and 4 and 3
Distance (nontransgenic mice; [11]): 2065.19 and 2495.79 and 2100.99 and 2299.57 and 1083.65 and 2015.54 and 1762.54 and 1784.58 and 1973.36 and 2419.28 and 2296.21 and 1746.93 and 2593.71 and 2297.94 and 2156.55
Latency (nontransgenic mice; [11]): 120.153 (10×) and 56.5566 and 93.994 and 110.677 and 97.7644 and 92.3257
Distance (nontransgenic mice; [12]): 2252.57 and 966.538 and 2215.71 and 2563.77 and 445.101 and 2147.24 and 1156.33 and 1018.37 and 2302.03 and 2270.34 and 1964.61 and 2179.88 and 2576.82 and 1685.38 and 1279.26
Latency (nontransgenic mice; [12]): 119.753 and 49.4828 and 119.686 and 120.153 (6×) and 23.4902 and 55.5555 and 58.6587 and 114.581 and 80.8141 and 66.8669
Distance (nontransgenic mice; [13]): 2747.59 and 190.327 and 1538.1 and 2351.74 and 241.5 and 531.856 and 1005.53 and 471.756 and 1003.73 and 604.685 and 1640.73 and 351.494 and 2299.54 and 202.419 and 1735.08
Latency (nontransgenic mice; [13]): 120.153 (5×) and 12.6126 and 98.365 and 13.9807 and 31.4314 and 77.5108 and 25.1251 and 47.047 and 26.9937 and 17.4174 and 12.5459
Crossing Frequency (nontransgenic mice; ISRIB 0.25mpk): 6 and 2 and 0 and 3 and 1 and 7
learning rates to find the hidden platform (latency or distance) vs vehicle (nontransgenic mice; MWM #1 training, 0.1 and 0.25 mpk): No differences in learning rates
Plasma concentration ([1]; Morris water maze #1 satellite mice, 0.25 mpk i.p. (1% DMSO/saline), 0.25 mg/kg): 0.0653 µg/mL and 0.0719 µg/mL
Plasma concentration ([1]; Morris water maze #2 satellite mice, 0.25 mpk i.p. (1% DMSO/saline), 0.25 mg/kg): 0.0666 µg/mL and 0.0656 µg/mL
Plasma concentration ([1]; Morris water maze #2 satellite mice, 2.5 mpk i.p. (DMSO/PEG), 2.5 mg/kg): 0.657 µg/mL and 0.348 µg/mL and 0.286 µg/mL
